Test results from ChEMBL document CHEMBL1201862, “PubChem BioAssay data set” (2004).
pIC50: −log10 of the molar value. Calls of active or inactive are those of the source.

Tests used:
[1] = biological target: T1, Caspase-3 (Homo sapiens, UniProt P42574); assay: activation of caspase-3 zymogen – biochemical, absorbance, dose response (AID 489014)
T1 sequence (P42574 whole entry): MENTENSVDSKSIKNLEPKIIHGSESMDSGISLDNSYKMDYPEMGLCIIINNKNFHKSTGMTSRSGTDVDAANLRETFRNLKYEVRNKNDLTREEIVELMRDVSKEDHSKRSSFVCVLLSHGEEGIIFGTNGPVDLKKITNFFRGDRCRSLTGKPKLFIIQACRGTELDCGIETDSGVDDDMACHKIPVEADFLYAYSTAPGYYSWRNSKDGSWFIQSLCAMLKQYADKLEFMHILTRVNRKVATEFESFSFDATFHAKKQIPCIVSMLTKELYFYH

[2] = Luminescence Cell-Based Dose Retest to Confirm Inhibitors of Cancer Stem Cells. [Related pubchem assays (depositor defined):AID2717, AID2721]; format: functional, Homo sapiens; settings: Homo sapiens
[3] = biological target: Caspase-7 (Homo sapiens, UniProt P55210); assay: activation of caspase-7 zymogen – biochemical, absorbance, counter-screen for procaspase-3 activator project, dose response (AID 489013)
[4] = biological target: T2, Rac GTPase-activating protein 1 (Homo sapiens, UniProt Q9H0H5); assay: blockers of MgcRacGAP-driven Rac1 GTP hydrolysis – biochemical, ADP Hunter fluorescence, primary and confirmatory, confirmation (AID 624330); format: functional
T2 sequence (Q9H0H5 whole entry): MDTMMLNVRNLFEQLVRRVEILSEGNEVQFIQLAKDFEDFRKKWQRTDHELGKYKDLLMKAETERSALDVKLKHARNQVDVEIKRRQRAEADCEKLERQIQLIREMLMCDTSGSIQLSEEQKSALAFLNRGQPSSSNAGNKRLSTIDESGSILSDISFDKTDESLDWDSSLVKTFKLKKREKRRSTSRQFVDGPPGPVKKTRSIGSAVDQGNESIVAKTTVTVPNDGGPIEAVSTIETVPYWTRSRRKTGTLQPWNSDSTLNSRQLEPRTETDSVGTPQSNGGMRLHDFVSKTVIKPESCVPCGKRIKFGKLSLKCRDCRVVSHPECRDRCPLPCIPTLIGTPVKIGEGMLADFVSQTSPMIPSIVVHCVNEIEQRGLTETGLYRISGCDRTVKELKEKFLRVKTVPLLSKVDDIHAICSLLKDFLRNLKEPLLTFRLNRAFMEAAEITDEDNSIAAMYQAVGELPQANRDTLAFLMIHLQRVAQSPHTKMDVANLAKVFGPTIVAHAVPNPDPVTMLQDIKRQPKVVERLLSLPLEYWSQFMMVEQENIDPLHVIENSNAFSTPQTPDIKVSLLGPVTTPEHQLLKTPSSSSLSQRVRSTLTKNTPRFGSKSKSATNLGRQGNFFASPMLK

[5] = system: HeLa; assay: viability loss in HeLa cells – cell-based, 24 h, cherry-picked samples, cytotoxicity control, dose response (AID 504726); format: functional; settings: Homo sapiens;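 further: potency for cytotoxicity as loss of luminescence signal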
[6] = viability loss in HeLa cells – cytotoxicity control for MgcRacGAP inhibitor project, dose response (AID 624300); format: functional
[7] = biological target: T3, Oxysterols receptor LXR-beta (Homo sapiens, UniProt P55055); assay: LXR agonists, Gal4 luciferase reporter, dose response, counter-screen for ssDAF-12 agonist project, cell-based, luminescence, HEK293, S. stercoralis campaign (AID 720737); format: functional; settings: read-out: IC50 (the source's name)
T3 sequence (P55055 whole entry): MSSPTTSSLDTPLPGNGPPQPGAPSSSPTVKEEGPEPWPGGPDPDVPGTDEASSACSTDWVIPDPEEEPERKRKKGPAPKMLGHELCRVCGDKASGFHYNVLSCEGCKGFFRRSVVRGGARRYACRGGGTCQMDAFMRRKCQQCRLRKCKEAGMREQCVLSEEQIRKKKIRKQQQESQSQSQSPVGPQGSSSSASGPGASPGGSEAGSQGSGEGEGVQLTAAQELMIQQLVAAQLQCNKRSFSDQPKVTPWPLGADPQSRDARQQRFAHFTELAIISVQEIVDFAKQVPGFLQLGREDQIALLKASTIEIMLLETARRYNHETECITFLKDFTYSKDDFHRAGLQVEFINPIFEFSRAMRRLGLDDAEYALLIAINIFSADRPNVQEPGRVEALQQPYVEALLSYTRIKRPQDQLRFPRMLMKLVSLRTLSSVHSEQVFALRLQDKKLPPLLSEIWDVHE

[8] = biological target: T4, ORF 73 (Human herpesvirus 8, UniProt O40947); assay: KSHV LANA DNA-binding disruption – biochemical, fluorescence polarization, cherry-picked samples, dose response (AID 504725); design: species or system Human gammaherpesvirus 8;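 further: fluorescence polarization of a labeled DNA duplex reporting LANA DNA binding; potency is for inhibitors that block LANA binding to the DNA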
T4 sequence (O40947 whole entry): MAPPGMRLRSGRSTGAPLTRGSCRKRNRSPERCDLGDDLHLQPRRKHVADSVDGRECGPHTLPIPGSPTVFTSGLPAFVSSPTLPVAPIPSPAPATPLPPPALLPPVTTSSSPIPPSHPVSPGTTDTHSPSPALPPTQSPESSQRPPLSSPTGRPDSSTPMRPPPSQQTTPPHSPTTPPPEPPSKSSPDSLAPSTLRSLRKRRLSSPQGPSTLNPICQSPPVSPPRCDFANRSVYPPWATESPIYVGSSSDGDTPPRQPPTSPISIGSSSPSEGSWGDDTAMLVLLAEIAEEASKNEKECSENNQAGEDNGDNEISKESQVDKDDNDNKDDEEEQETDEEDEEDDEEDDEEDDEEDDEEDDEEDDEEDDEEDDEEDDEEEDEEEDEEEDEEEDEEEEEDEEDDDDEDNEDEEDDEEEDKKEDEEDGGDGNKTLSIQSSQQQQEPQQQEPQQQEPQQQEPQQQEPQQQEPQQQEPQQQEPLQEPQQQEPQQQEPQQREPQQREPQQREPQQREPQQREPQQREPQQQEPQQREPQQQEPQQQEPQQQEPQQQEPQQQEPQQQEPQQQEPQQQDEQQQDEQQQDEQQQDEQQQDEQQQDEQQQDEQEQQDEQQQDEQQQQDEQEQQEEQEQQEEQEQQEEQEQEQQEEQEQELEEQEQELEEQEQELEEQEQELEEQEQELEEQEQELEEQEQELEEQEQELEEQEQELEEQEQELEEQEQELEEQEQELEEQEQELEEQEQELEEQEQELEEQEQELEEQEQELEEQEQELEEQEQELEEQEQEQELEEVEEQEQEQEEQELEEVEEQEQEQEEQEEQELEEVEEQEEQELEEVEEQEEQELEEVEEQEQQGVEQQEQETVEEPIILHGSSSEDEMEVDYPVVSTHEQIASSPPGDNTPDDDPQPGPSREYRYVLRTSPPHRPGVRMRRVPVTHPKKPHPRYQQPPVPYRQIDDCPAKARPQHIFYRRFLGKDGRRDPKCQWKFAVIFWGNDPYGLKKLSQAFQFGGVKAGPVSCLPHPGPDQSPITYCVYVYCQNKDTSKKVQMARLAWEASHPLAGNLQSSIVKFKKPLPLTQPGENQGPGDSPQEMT

[9] = Luminescence-based cell-based high throughput dose response assay to identify activators of the DAF-12 from the parasite S. stercoralis (ssDAF-12).; format: functional
[10] = protection from phage-mediated lysis, alamar blue read-out – E. coli UTI89, K1F phage, bacterial capsule biogenesis inhibitors (AID 488966); format: functional
[11] = biological target: DNA damage-inducible transcript 3 protein (Mus musculus, UniProt P35639); format: functional, Cricetulus griseus
[12] = system: H9c2; assay: cells; format: functional, cell-based; settings: Rattus norvegicus, H9c2, Myocardium;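 further: confirmatory concentration-response retest of ultra-high-throughput screening hits for modulation of myocardial damage; cell death induced by hydrogen peroxide oxidative stress; compound pretreatment for 60 min then peroxide exposure for 2 h; potency is for protecting the cells against peroxide damage rather than for killing them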
[13] = biological target: T5, X-box-binding protein 1 (Homo sapiens, UniProt P17861); format: functional, Cricetulus griseus;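 further: confirmatory dose-response counter-screen serving a CHOP assay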
T5 sequence (P17861 whole entry): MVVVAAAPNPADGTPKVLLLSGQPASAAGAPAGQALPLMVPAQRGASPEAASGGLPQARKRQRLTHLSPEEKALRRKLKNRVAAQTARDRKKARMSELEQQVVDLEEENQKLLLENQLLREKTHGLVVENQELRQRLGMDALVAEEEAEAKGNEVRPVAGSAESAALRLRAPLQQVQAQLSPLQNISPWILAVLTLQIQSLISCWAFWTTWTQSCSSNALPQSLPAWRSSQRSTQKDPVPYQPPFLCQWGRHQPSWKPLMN

[14] = system: Vero; assay: cells; format: functional, cell-based; settings: Chlorocebus sabaeus
[15] = biological target: T6, G-protein coupled receptor 55 (Homo sapiens, UniProt Q9Y2T6); assay: selective activators of receptor GPR55 – imaging, U2OS cells, beta-arrestin-GFP redistribution, primary screen (AID 1961); format: functional
[16] = Trypanosoma cruzi growth suppression in host cells – NIH3T3 host cells, beta-gal luminescence, confirmation (AID 2044); format: functional, cell-based;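 further: intracellular parasites grown in NIH/3T3 mouse fibroblasts as host cells; luminescent beta-galactosidase reporter signal from transgenic T. cruzi replicating inside host cells; inhibitors lower the luminescence signal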
[17] = NIH3T3 cell viability loss – ATP luminescence, mouse fibroblasts, counter-screen, dose response (AID 2010); format: functional, cell-based;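 further: cells exposed to compound for about 90 hours before reading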
[18] = system: Vero; assay: cells; format: functional; settings: Chlorocebus sabaeus
[19] = biological target: Glutathione S-transferase omega-1 (Homo sapiens, UniProt P78417); assay: IC50 of human GSTO1 blockade by gel ABPP – biochemical, SE-Rh probe, in-gel fluorescence, powder samples, set 2, late-stage follow-up (AID 463142); format: functional
[20] = biological target: T7, Mannose-6-phosphate isomerase (Homo sapiens, UniProt P34949); assay: Confirmation of compounds inhibiting phosphomannose isomerase (PMI) via a fluorescence intensity assay using a high concentration of mannose 6-phosphate. [Related pubchem assays (depositor defined):AID1209, AID1220, AID1545, AID1553, AID1620]
T7 sequence (P34949 whole entry): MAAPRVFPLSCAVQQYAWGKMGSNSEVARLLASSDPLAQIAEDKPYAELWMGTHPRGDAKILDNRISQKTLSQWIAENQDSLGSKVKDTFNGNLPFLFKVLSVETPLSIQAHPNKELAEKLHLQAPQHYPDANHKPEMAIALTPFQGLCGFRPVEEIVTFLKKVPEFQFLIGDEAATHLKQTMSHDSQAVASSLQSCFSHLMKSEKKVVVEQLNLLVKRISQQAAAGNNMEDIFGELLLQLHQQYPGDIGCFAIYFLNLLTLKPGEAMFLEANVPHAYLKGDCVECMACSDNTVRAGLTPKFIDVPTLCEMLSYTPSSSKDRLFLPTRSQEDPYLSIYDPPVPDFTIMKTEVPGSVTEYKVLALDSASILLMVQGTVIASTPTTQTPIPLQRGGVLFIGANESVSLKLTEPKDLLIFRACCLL

[21] = biological target: T7, Mannose-6-phosphate isomerase; assay: phosphomannose isomerase inhibition – biochemical, fluorescence intensity, confirmation (AID 1535)
[22] = biological target: Alkaline phosphatase, placental type (Homo sapiens, UniProt P05187); assay: human placental alkaline phosphatase inhibition – biochemical, luminescence, confirmation (AID 1512); format: functional
[23] = biological target: Potassium voltage-gated channel subfamily KQT member 2 (Rattus norvegicus, UniProt O88943); assay: potentiation of rat KCNQ2 current – cell-based, retigabine-insensitive compounds, dose response (AID 2654); format: functional
[24] = biological target: Hexokinase (Trypanosoma brucei, UniProt Q38C41); assay: Confirmation assay for inhibitors of Trypanosoma brucei hexokinase 1-Analogue-first series. [Related pubchem assays (depositor defined):AID1430, AID1632, AID2516, AID2560, AID2579, AID2600, AID449725, AID492951]; format: functional
[25] = biological target: T6, G-protein coupled receptor 55; assay: inhibition of LPI-stimulated GPR55 beta-arrestin translocation – imaging, U2OS, beta-arrestin-GFP, LPI agonist, primary screen (AID 2013); format: functional;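 further: antagonist potency measured as reduced agonist-driven arrestin aggregation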
[26] = biological target: Phosphomannomutase 2 (Homo sapiens, UniProt O15305); assay: Counter screen SAR assay for PMM2 inhibitors via a fluorescence intensity assay. [Related pubchem assays (depositor defined):AID1545, AID1574]
[27] = biological target: Phosphoethanolamine/phosphocholine phosphatase (Homo sapiens, UniProt Q8TCT1); assay: SAR assay for compounds that inhibit PHOSPHO1. [Related pubchem assays (depositor defined):AID1545, AID1565, AID1574]
[28] = biological target: Beta-galactosidase (Escherichia coli, UniProt Q8VNN2); format: functional
[29] = cells; format: functional
[30] = THP-1 cell cytotoxicity, dose response, cytotoxicity control for non-replicating M. tuberculosis project (AID 489025); format: functional
[31] = biological target: T8, Kappa-type opioid receptor (Homo sapiens, UniProt P41145); format: functional
[32] = microbe, parasite or virus in culture; format: functional; settings: Mycobacterium tuberculosis
[33] = biological target: T8, Kappa-type opioid receptor; format: functional; remark: listed apart in the source

T8 sequence (P41145 whole entry): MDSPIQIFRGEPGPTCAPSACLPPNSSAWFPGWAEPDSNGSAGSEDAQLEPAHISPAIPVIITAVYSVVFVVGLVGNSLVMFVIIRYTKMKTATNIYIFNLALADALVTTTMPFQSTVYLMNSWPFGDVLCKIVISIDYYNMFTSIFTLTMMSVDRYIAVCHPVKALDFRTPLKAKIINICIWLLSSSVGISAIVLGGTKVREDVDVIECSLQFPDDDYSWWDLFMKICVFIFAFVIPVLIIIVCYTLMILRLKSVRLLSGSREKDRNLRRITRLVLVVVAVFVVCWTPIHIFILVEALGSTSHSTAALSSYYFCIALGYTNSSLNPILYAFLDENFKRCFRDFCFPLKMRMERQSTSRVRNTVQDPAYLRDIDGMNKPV
T6 sequence (Q9Y2T6 whole entry): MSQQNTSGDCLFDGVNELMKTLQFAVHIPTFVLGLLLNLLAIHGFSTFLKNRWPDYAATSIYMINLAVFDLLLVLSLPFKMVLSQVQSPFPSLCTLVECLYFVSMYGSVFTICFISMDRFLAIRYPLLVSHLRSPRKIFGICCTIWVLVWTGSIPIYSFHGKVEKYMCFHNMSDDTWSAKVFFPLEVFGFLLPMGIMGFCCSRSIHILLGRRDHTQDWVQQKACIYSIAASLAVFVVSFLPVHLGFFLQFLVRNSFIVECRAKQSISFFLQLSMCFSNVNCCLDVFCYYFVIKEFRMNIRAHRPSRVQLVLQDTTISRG
Sequence of Caspase-7 (P55210 24-198 limits assumed): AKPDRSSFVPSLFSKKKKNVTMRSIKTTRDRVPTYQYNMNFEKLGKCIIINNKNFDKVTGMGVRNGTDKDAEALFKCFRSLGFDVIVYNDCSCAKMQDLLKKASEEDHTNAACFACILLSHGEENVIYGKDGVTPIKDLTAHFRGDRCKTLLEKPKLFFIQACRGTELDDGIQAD
Sequence of Caspase-7 (P55210 207-303 limits assumed): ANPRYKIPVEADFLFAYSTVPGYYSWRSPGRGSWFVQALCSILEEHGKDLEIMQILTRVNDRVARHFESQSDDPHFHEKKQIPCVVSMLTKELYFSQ
Sequence of Phosphoethanolamine/phosphocholine phosphatase (Q8TCT1 whole entry): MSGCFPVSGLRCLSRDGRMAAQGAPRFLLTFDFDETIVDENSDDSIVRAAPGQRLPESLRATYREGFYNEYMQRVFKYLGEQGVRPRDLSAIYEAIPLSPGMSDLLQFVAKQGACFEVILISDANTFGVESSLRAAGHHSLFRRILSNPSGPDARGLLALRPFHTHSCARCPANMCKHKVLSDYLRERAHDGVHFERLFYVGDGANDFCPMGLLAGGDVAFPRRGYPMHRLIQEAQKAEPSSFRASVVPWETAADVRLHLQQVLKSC
Sequence of Alkaline phosphatase, placental type (P05187 whole entry): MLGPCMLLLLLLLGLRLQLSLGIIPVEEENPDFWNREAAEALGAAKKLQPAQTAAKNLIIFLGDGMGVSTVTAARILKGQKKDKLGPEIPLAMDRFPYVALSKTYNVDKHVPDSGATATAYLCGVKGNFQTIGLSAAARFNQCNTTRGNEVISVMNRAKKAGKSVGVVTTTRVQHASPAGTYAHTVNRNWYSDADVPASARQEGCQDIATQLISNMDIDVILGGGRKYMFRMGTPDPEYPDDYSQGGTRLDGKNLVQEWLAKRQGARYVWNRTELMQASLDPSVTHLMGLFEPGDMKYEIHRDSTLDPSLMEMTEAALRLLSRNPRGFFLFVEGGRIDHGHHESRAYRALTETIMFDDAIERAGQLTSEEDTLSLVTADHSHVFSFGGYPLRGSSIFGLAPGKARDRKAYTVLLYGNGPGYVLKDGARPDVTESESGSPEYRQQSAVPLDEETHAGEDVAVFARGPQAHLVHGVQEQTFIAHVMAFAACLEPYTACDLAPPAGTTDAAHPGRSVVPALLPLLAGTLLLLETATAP
Sequence of Phosphomannomutase 2 (O15305 whole entry): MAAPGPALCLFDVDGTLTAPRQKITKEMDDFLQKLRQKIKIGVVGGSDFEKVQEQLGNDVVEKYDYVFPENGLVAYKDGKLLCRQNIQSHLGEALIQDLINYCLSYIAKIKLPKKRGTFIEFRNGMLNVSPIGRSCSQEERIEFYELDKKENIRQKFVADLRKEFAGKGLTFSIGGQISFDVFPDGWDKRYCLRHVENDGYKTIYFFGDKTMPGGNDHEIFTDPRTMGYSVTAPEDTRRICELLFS
Sequence of DNA damage-inducible transcript 3 protein (P35639 whole entry): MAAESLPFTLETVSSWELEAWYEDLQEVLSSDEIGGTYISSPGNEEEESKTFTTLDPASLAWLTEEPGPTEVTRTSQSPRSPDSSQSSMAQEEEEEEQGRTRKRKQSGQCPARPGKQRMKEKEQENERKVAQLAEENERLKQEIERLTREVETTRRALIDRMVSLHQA
Sequence of Hexokinase (Q38C41 whole entry): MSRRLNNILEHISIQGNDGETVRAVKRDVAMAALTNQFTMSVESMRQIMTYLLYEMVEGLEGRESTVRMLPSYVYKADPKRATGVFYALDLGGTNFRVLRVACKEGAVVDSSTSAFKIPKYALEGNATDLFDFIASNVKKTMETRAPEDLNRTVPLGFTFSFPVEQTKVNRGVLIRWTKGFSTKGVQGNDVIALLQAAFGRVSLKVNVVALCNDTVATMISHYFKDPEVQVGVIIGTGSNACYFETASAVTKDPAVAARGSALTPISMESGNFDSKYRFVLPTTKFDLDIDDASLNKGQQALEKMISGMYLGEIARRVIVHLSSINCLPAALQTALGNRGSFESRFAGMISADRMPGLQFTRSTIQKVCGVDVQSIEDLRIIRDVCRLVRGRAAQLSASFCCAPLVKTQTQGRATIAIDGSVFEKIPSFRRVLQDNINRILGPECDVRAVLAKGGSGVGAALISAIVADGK
Sequence of Potassium voltage-gated channel subfamily KQT member 2 (O88943 whole entry): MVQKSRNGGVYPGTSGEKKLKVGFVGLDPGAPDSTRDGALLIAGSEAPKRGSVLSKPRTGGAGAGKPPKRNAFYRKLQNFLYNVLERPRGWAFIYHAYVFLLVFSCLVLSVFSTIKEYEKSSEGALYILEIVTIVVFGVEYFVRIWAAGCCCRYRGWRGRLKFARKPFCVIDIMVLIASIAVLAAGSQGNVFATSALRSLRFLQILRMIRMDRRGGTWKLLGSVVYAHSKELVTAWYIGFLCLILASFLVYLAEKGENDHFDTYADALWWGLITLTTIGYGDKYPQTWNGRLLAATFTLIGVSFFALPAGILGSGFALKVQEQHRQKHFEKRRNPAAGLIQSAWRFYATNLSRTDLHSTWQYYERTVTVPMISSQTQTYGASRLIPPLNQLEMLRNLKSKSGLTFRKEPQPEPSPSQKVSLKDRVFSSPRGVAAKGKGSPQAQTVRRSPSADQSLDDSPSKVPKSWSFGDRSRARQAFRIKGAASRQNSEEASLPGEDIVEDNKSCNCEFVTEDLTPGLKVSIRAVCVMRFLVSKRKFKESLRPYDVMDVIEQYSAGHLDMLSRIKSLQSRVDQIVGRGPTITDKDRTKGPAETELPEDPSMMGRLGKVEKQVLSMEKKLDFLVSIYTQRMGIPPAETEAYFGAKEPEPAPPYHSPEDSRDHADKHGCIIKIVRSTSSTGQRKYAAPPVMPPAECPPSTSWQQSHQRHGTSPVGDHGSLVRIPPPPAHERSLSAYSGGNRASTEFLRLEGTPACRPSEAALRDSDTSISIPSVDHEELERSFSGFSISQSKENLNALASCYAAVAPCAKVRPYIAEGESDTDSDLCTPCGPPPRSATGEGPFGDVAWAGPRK
Sequence of Glutathione S-transferase omega-1 (P78417 whole entry): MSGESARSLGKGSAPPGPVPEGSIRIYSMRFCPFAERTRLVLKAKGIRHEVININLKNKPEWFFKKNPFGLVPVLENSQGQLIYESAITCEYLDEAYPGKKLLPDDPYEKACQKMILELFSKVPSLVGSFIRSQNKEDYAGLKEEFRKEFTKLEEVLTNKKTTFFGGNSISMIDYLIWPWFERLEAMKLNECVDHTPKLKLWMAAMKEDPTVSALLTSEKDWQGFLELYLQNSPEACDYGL
Sequence of Beta-galactosidase (Q8VNN2 whole entry): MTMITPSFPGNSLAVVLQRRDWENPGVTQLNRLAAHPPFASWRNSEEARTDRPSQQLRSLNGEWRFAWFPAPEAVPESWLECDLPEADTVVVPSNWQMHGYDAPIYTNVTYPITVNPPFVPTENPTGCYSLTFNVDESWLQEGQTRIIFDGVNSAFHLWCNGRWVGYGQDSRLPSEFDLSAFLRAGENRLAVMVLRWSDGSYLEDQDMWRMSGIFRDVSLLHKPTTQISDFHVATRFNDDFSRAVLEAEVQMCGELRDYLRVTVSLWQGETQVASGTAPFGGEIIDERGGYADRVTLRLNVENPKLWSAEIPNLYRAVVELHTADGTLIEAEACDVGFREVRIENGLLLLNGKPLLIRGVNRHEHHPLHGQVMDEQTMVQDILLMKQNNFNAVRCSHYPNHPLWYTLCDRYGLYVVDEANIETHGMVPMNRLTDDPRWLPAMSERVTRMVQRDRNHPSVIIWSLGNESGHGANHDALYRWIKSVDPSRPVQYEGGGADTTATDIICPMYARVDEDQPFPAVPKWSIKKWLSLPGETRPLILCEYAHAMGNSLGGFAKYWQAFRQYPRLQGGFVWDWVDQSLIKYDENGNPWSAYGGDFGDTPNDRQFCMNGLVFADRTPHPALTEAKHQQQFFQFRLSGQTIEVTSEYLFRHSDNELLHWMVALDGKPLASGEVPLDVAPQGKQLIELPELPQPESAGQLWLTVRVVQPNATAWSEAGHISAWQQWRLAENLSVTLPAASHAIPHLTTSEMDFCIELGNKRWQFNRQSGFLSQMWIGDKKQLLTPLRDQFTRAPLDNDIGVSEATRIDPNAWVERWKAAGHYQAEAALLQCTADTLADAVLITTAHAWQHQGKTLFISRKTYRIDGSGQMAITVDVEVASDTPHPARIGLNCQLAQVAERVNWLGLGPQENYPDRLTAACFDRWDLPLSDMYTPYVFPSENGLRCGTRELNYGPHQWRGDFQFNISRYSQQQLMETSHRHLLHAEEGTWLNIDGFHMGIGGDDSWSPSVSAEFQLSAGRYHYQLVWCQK

COc1ccc(-c2sc3ccc(OC)cc3c2C#Cc2ccccn2)cc1
EC50 [1]: > 85.2 µM (inactive)
AC50 [2]: 3 µM (active)
EC50 [3]: > 85.2 µM (inactive)

CNc1c2cccc(C)c2nc2c(C(=O)NCCN(C)C)cccc12
IC50 [4]: 34.6 µM (active)
AC50 [5]: 1.01 µM (active)
CC50 [6]: 3.39 µM (active)
EC50 [7]: > 67.5 µM (inactive)
AC50 [8]: 5.35 µM (active)
IC50 [9]: > 67.5 µM (inactive)
IC50 [10]: > 150 µM (active)

CCOC(=O)c1c(C)[nH]c(O)c1/C=N/c1ccc(Cl)cc1
Absolute IC50 (CHOP) [11]: 10 µM
IC50 [12]: 13.8 µM (active)
Absolute IC50 (XBP1) [13]: 10 µM

Cc1ccc(C(=O)C(C(=O)/C=C/c2ccccc2)=C2SCCCS2)cc1
IC50 [14]: 7.69 µM (active)
AC50 [2]: 1.24 µM (active)
EC50 [15]: 3.63 µM (active)
EC50 [16]: 0.99 µM (active)
EC50 [17]: 10.3 µM (active)
CC50 [18]: > 25 µM (active)

O=C(NC1CCCCC1)C(c1cccnc1)N(C(=O)CCl)c1ccc(Cl)c(Cl)c1 (stereo not given)
IC50 [19]: 0.045 µM (active)

C=CCN1C(=O)/C(=N\Nc2ccccc2O)c2ccccc21
IC50 [20]: > 100 µM (inactive)
IC50 [21]: > 100 µM (inactive)
IC50 [22]: > 100 µM (inactive)

O=C(Nc1ccc(Br)nc1)Nc1cccc(F)c1
EC50 [23]: 4.04 µM (active)

O=c1c2ccc(F)cc2sn1Cc1ccccc1
IC50 [24]: > 25 µM (inactive)

CCOC(=O)C1=C(C)N=C(C)/C(=C(\O)OCC)C1c1ccc(Br)o1 (stereo not given)
IC50 [25]: 2.42 µM (active)

O=c1c2ccc(F)cc2sn1-c1cccc(Cl)c1Cl
IC50 [26]: > 100 µM (inactive)
IC50 [21]: > 50 µM (inactive)
IC50 [27]: 0.359 µM (active)

CC(C)(C)NC(=O)C(=O)NNC(=O)c1ccc(C(C)(C)C)cc1
EC50 [28]: > 31.5 µM (inactive)
IC50 [29]: 19.4 µM (active)
CC50 [30]: > 40 µM (active)
IC50 [31]: > 31.5 µM (inactive)
CC50 [32]: > 40 µM (active)
pIC50 [33]: < 4.49
